# Reference: ChEMBL document CHEMBL1151405, “Biological and phytochemical investigation of Clausena excavata” (J Nat Prod, 1982)
# The source made the active and inactive calls. No cut-off for these calls is given here.
# Legend:
# Assay type in all cases: functional, organism-based
# Staphylococcus aureus [1] = test: Antimicrobial activity against penicillin-resistant Staphylococcus aureus at 50 ppm after 24 hrs
# Staphylococcus aureus [2] = test: Antimicrobial activity against penicilln-resistant Staphylococcus aureus at 100 ppm after 24 hrs
# Staphylococcus aureus [3] = test: Antimicrobial activity against penicillin-resistant Staphylococcus aureus at 200 ppm after 24 hrs
# Staphylococcus aureus [4] = test: Antimicrobial activity against penicilln-resistant Staphylococcus aureus at 10 ppm after 24 hrs
# [5] = tested on: Bordetella bronchiseptica; test: Antimicrobial activity against Bordetella bronchiseptica 4614 at 200 ppm after 48 hrs
# [6] = tested on: Bordetella bronchiseptica; test: Antimicrobial activity against Bordetella bronchiseptica 4614 at 100 ppm after 48 hrs
# [7] = tested on: Bordetella bronchiseptica; test: Antimicrobial activity against Bordetella bronchiseptica 4614 at 50 ppm after 48 hrs
# [8] = tested on: Bordetella bronchiseptica; test: Antimicrobial activity against Bordetella bronchiseptica 4614 at 10 ppm after 48 hrs
# [9] = tested on: Bordetella bronchiseptica; test: Antimicrobial activity against Bordetella bronchiseptica 4614 at 5 ppm after 24 hrs
# [10] = tested on: Salmonella enterica subsp. enterica serovar Gallinarum; test: Antimicrobial activity against Salmonella gallinarum X142 at 200 ppm after 24 hrs
# [11] = tested on: Salmonella enterica subsp. enterica serovar Gallinarum; test: Antimicrobial activity against Salmonella gallinarum X142 at 100 ppm after 24 hrs
# [12] = tested on: Salmonella enterica subsp. enterica serovar Gallinarum; test: Antimicrobial activity against Salmonella gallinarum X142 at 50 ppm after 24 hrs
# [13] = tested on: Salmonella enterica subsp. enterica serovar Gallinarum; test: Antimicrobial activity against Salmonella gallinarum X142 at 10 ppm after 24 hrs
# [14] = tested on: Salmonella enterica subsp. enterica serovar Gallinarum; test: Antimicrobial activity against Salmonella gallinarum X142 at 5 ppm after 24 hrs
# Escherichia coli [15] = test: Antimicrobial activity against Escherichia coli 10536 at 200 ppm after 24 hrs
# Escherichia coli [16] = test: Antimicrobial activity against Escherichia coli 10536 at 100 ppm after 24 hrs
# Escherichia coli [17] = test: Antimicrobial activity against Escherichia coli 10536 at 50 ppm after 24 hrs
# Escherichia coli [18] = test: Antimicrobial activity against Escherichia coli 10536 at 10 ppm after 24 hrs
# Escherichia coli [19] = test: Antimicrobial activity against Escherichia coli 10536 at 5 ppm after 24 hrs
# Bacillus subtilis [20] = test: Antimicrobial activity against Bacillus subtilis 6633 at 200 ppm after 48 hrs
# Bacillus subtilis [21] = test: Antimicrobial activity against Bacillus subtilis 6633 at 100 ppm after 48 hrs
# Bacillus subtilis [22] = test: Antimicrobial activity against Bacillus subtilis 6633 at 50 ppm after 48 hrs
# Bacillus subtilis [23] = test: Antimicrobial activity against Bacillus subtilis 6633 at 10 ppm after 48 hrs
# Bacillus subtilis [24] = test: Antimicrobial activity against Bacillus subtilis 6633 at 5 ppm after 24 hrs
# Streptococcus pneumoniae [25] = test: Antimicrobial activity against Pneumococcus clinical isolates at 200 ppm after 48 hrs
# Streptococcus pneumoniae [26] = test: Antimicrobial activity against Pneumococcus clinical isolates at 100 ppm after 48 hrs
# Streptococcus pneumoniae [27] = test: Antimicrobial activity against Pneumococcus clinical isolates at 50 ppm after 48 hrs
# Streptococcus pneumoniae [28] = test: Antimicrobial activity against Pneumococcus clinical isolates at 10 ppm after 48 hrs
# Staphylococcus aureus [29] = test: Antimicrobial activity against Staphylococcus aureus 6538-P at 200 ppm after 48 hrs
# Staphylococcus aureus [30] = test: Antimicrobial activity against Staphylococcus aureus 6538-P at 100 ppm after 48 hrs
# Staphylococcus aureus [31] = test: Antimicrobial activity against Staphylococcus aureus 6538-P at 50 ppm after 48 hrs
# Staphylococcus aureus [32] = test: Antimicrobial activity against Staphylococcus aureus 6538-P at 10 ppm after 48 hrs
# Micrococcus luteus [33] = test: Antimicrobial activity against Sarcina lutea 9341 at 200 ppm after 48 hrs
# Micrococcus luteus [34] = test: Antimicrobial activity against Sarcina lutea 9341 at 50 ppm after 24 hrs
# Micrococcus luteus [35] = test: Antimicrobial activity against Sarcina lutea 9341 at 10 ppm after 24 hrs
# Micrococcus luteus [36] = test: Antimicrobial activity against Sarcina lutea 9341 at 5 ppm after 24 hrs
# Pseudomonas aeruginosa [37] = test: Antimicrobial activity against Pseudomonas aeruginosa NCTC 10490 at 200 ppm after 48 hrs
# Pseudomonas aeruginosa [38] = test: Antimicrobial activity against Pseudomonas aeruginosa NCTC 10490 at 100 ppm after 48 hrs
# Pseudomonas aeruginosa [39] = test: Antimicrobial activity against Pseudomonas aeruginosa NCTC 10490 at 50 ppm after 48 hrs
# Pseudomonas aeruginosa [40] = test: Antimicrobial activity against Pseudomonas aeruginosa NCTC 10490 at 10 ppm after 48 hrs
# [41] = tested on: Saccharomyces pastorianus; test: Antimicrobial activity against Saccharomyces carlsbergensis at 200 ppm after 24 hrs
# [42] = tested on: Saccharomyces pastorianus; test: Antimicrobial activity against Saccharomyces carlsbergensis at 100 ppm after 24 hrs
# [43] = tested on: Saccharomyces pastorianus; test: Antimicrobial activity against Saccharomyces carlsbergensis at 50 ppm after 24 hrs
# [44] = tested on: Saccharomyces pastorianus; test: Antimicrobial activity against Saccharomyces carlsbergensis at 10 ppm after 24 hrs
# [45] = tested on: Saccharomyces pastorianus; test: Antimicrobial activity against Saccharomyces carlsbergensis at 5 ppm after 24 hrs
# [46] = tested on: Saccharomyces pastorianus; test: Antimicrobial activity against Saccharomyces carlsbergensis at 500 ppm after 24 hrs
# Aspergillus niger [47] = test: Antimicrobial activity against Aspergillus niger at 200 ppm after 24 hrs
# Aspergillus niger [48] = test: Antimicrobial activity against Aspergillus niger at 100 ppm after 24 hrs
# Aspergillus niger [49] = test: Antimicrobial activity against Aspergillus niger at 50 ppm after 24 hrs
# Aspergillus niger [50] = test: Antimicrobial activity against Aspergillus niger at 10 ppm after 24 hrs
# Aspergillus niger [51] = test: Antimicrobial activity against Aspergillus niger at 5 ppm after 24 hrs
# Staphylococcus aureus [52] = test: Antimicrobial activity against penicillin-resistant Staphylococcus aureus at 5 ppm after 24 hrs
# [53] = tested on: Bordetella bronchiseptica; test: Antimicrobial activity against Bordetella bronchiseptica 4614 at 500 ppm after 24 hrs
# [54] = tested on: Salmonella enterica subsp. enterica serovar Gallinarum; test: Antimicrobial activity against Salmonella gallinarum X142 at 500 ppm after 24 hrs
# Escherichia coli [55] = test: Antimicrobial activity against Escherichia coli 10536 at 500 ppm after 24 hrs
# Bacillus subtilis [56] = test: Antimicrobial activity against Bacillus subtilis 6633 at 500 ppm after 24 hrs
# Streptococcus pneumoniae [57] = test: Antimicrobial activity against Pneumococcus clinical isolates at 500 ppm after 24 hrs
# Staphylococcus aureus [58] = test: Antimicrobial activity against Staphylococcus aureus 6538-P at 500 ppm after 24 hrs
# Micrococcus luteus [59] = test: Antimicrobial activity against Sarcina lutea 9341 at 500 ppm after 24 hrs
# Pseudomonas aeruginosa [60] = test: Antimicrobial activity against Pseudomonas aeruginosa NCTC 10490 at 500 ppm after 24 hrs
# Aspergillus niger [61] = test: Antimicrobial activity against Aspergillus niger at 500 ppm after 24 hrs
# Staphylococcus aureus [62] = test: Antimicrobial activity against penicillin-resistant Staphylococcus aureus at 500 ppm after 24 hrs
smiles,measurement,setting,value
C=CC(C)(C)c1c2c(c(O)c3ccc(=O)oc13)C=CC(C)(C)O2,Activity,Staphylococcus aureus [1],inactive
same,Activity,Staphylococcus aureus [2],inactive
same,Activity,Staphylococcus aureus [3],inactive
same,Activity,Staphylococcus aureus [4],inactive
same,Activity,[5],Active
same,Activity,[6],Active
same,Activity,[7],Active
same,Activity,[8],Active
same,Activity,[9],inactive
same,Activity,[10],inactive
same,Activity,[11],inactive
same,Activity,[12],inactive
same,Activity,[13],inactive
same,Activity,[14],inactive
same,Activity,Escherichia coli [15],inactive
same,Activity,Escherichia coli [16],inactive
same,Activity,Escherichia coli [17],inactive
same,Activity,Escherichia coli [18],inactive
same,Activity,Escherichia coli [19],inactive
same,Activity,Bacillus subtilis [20],Active
same,Activity,Bacillus subtilis [21],Active
same,Activity,Bacillus subtilis [22],Active
same,Activity,Bacillus subtilis [23],Active
same,Activity,Bacillus subtilis [24],inactive
same,Activity,Streptococcus pneumoniae [25],Active
same,Activity,Streptococcus pneumoniae [26],Active
same,Activity,Streptococcus pneumoniae [27],Active
same,Activity,Streptococcus pneumoniae [28],Active
same,Activity,Staphylococcus aureus [29],Active
same,Activity,Staphylococcus aureus [30],Active
same,Activity,Staphylococcus aureus [31],Active
same,Activity,Staphylococcus aureus [32],Active
same,Activity,Micrococcus luteus [33],Active
same,Activity,Micrococcus luteus [34],inactive
same,Activity,Micrococcus luteus [35],inactive
same,Activity,Micrococcus luteus [36],inactive
same,Activity,Pseudomonas aeruginosa [37],Active
same,Activity,Pseudomonas aeruginosa [38],Active
same,Activity,Pseudomonas aeruginosa [39],Active
same,Activity,Pseudomonas aeruginosa [40],Active
same,Activity,[41],inactive
same,Activity,[42],inactive
same,Activity,[43],inactive
same,Activity,[44],inactive
same,Activity,[45],inactive
same,Activity,[46],inactive
same,Activity,Aspergillus niger [47],inactive
same,Activity,Aspergillus niger [48],inactive
same,Activity,Aspergillus niger [49],inactive
same,Activity,Aspergillus niger [50],inactive
same,Activity,Aspergillus niger [51],inactive
same,Activity,Staphylococcus aureus [52],inactive
COc1c2c(cc3oc(=O)ccc13)OC(C)(C)C=C2,Activity,[53],inactive
same,Activity,[54],inactive
same,Activity,Escherichia coli [55],inactive
same,Activity,Bacillus subtilis [56],inactive
same,Activity,Streptococcus pneumoniae [57],inactive
same,Activity,Staphylococcus aureus [58],inactive
same,Activity,Micrococcus luteus [59],inactive
same,Activity,Pseudomonas aeruginosa [60],inactive
same,Activity,[46],inactive
same,Activity,Aspergillus niger [61],inactive
same,Activity,Staphylococcus aureus [62],inactive
C=CC(C)(C)c1cc2c(O)c3c(c(C(C)(C)C=C)c2oc1=O)OC(C)(C)C=C3,Activity,[53],inactive
same,Activity,[54],inactive
same,Activity,Escherichia coli [55],inactive
same,Activity,Bacillus subtilis [56],inactive
same,Activity,Streptococcus pneumoniae [57],inactive
same,Activity,Staphylococcus aureus [58],inactive
same,Activity,Micrococcus luteus [59],inactive
same,Activity,Pseudomonas aeruginosa [60],inactive
same,Activity,[46],inactive
same,Activity,Aspergillus niger [61],inactive
same,Activity,Staphylococcus aureus [62],inactive
C=CC(C)(C)c1c(O)c2c(c3ccc(=O)oc13)OC(C)(C)CC2=O,Activity,[53],inactive
same,Activity,[54],inactive
same,Activity,Escherichia coli [55],inactive
same,Activity,Bacillus subtilis [56],inactive
same,Activity,Streptococcus pneumoniae [57],inactive
same,Activity,Staphylococcus aureus [58],inactive
same,Activity,Micrococcus luteus [59],inactive
same,Activity,Pseudomonas aeruginosa [60],inactive
same,Activity,[46],inactive
same,Activity,Aspergillus niger [61],inactive
same,Activity,Staphylococcus aureus [62],inactive
C=CC(C)(C)c1c(O)c(/C=C/C(=O)O)c2c(c1O)C(=O)CC(C)(C)O2,Activity,[53],inactive
same,Activity,[54],inactive
same,Activity,Escherichia coli [55],inactive
same,Activity,Bacillus subtilis [56],inactive
same,Activity,Streptococcus pneumoniae [57],inactive
same,Activity,Staphylococcus aureus [58],inactive
same,Activity,Micrococcus luteus [59],inactive
same,Activity,Pseudomonas aeruginosa [60],inactive
same,Activity,[46],inactive
same,Activity,Aspergillus niger [61],inactive
same,Activity,Staphylococcus aureus [62],inactive
